# In patent US20240294545A1 (CSPC Zhongqi Pharmaceutical Technology (Shijiazhuang) Co., …, priority 2020, published 2024):
# Marks after values point to notes of the source that are not given here.
# Legend:
# [1] = test system: subcutaneous xenograft tumor of human glioblastoma LN-18; experiment: LN-18 subcutaneous xenograft, combined with radiotherapy; format: in vivo, NOG mice; settings: compound 10 mg/kg intragastric qd × 5 + IR 1 Gy, day 17
# Method in brief: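 Female NOG mice (18–22 g) bearing subcutaneous LN-18 tumours (1.5*10^7 cells, right costal region) were grouped at 100–150 mm^3; radiotherapy followed compound dosing by 1 h. Caliper volumes twice weekly (0.5×long×short^2); TGI % derived from treated vs control mean volume changes from day 0.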
# [2] = test system: subcutaneous xenograft tumor of human non-small cell lung cancer cell line NCI-H441; experiment: NCI-H441 subcutaneous xenograft, combined with irinotecan liposome injection; format: in vivo, NU/NU mice; settings: for D 17 TGI / D 17 TV (MEAN ± SD) / Tumor weight / Tumor weight inhibitory rate: compound 25 mg/kg intragastric + irinotecan liposome 2.5 mg/kg ip; for D 17 TGI / D 17 TV (MEAN ± SD): day 17; for Tumor weight / Tumor weight inhibitory rate: end of test d17
# Procedure: 6 Efficacy Test of the Compounds of the Present Disclosure Combined with Irinotecan Liposome Injection on Inhibiting the Growth of Subcutaneous Xenograft Tumor of Human Non-Small Cell Lung Cancer Cell Line NCI-H441
# 6.1 Experimental Animals: NU/NU Mice, SPF, Female, 20 to 30 g.
# Irinotecan liposome injection (HE072), 43 mg:10 mL, milky white liquid, batch No. B37191202, provided by Preparation Research Institute 2 from CSPC Zhongqi Pharmaceutical Technology (Shijiazhuang) Co., Ltd., diluted to an appropriate concentration with 5% glucose injection while testing.
# NCI-H441 cells, provided by Nanjing Kebai Biotechnology Co., Ltd.; 1640 culture medium (gibco Company):fetal bovine serum (Lanzhou Bailing)=90%:10%, 37° C., 5% CO2.
# NU/NU nude mice were subcutaneously inoculated with NCI-H441 human non-small cell lung cancer cells. When the mean tumor volume reached 170 to 172 mm^3 (15 days after inoculation), the animals were evenly divided into groups according to the tumor volume (d0), with 6 mice in each group. 2.5 mg/kg of HE072 was administered intraperitoneally once a week for 2 times. Vehicle control, 25 mg/kg of A-193, 25 mg/kg of A-182, and 25 mg/kg of AZD1390 were administered intragastrically once a day, from Monday to Thursday every week except Friday to Sunday, for 2 weeks (8 times). The tumor volume was measured twice a week, the body weight of mouse was weighed every day, and the data were recorded. The tumor volume (TV) was calculated according to the formula: TV=½×a×b2, wherein a and b represent the long and short diameters of tumor, respectively. Tumor growth inhibitory rate TGI (%)=[1−(Ti−T0)/(Vi−V0)]×100, wherein Ti represents the mean tumor volume of a given treatment group on a certain day; TO represents the mean tumor volume of this treatment group at the beginning of administration; Vi represents the mean tumor volume of the vehicle control group on a certain day (the same day as that in Ti); V0 represents the mean tumor volume of the vehicle control group at the beginning of administration. At the end of the test (d17), the animals were sacrificed, the tumors were stripped and weighed, and the tumor weight inhibitory rates were calculated.
# [3] = test system: Human glioblastoma cell line LN-18; experiment: LN18 cell proliferation combined with radiotherapy (CTG assay); format: cell-based; settings: Homo sapiens, LN-18, light or radiation study; LN18 cells, 1 Gy irradiation 1 h after compound, 6 days, CTG;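 further: readout is CTG luminescence proliferation not KAP1 phosphorylation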
# Procedure: 5 Test of the Inhibitory Activities of the Compounds of the Present Disclosure Combined with Radiotherapy on LN18 Cell Proliferation
# • Cell: Human glioblastoma cell line LN-18
# 5.2 Experimental Procedures
# • (1) Cell inoculation • 1) The cell culture fluid was preheated at 37° C. • 2) A complete culture medium of LN18 cells was prepared, at a ratio of DMEM medium:FBS=95:5 (V/V). • 3) Cells were digested with trypsin, collected to serve as a cell suspension, and counted, the cell suspension was then added into a 96-well plate at 1500 cells/well and 100 μL of cell fluid/well, and three parallel wells were set. • 4) After inoculated in the plate, the cells were cultured overnight under the condition of 37° C. and 5% CO2. • (2) Compound addition and incubation • 1) AZD1390 and tested compounds, respectively, were sequentially diluted 5 times with DMSO, starting from the concentration of 10 mM and yielding the concentrations of 10, 2, 0.4, 0.08, 0.016, 0.0032, 0.00064, 0.000128, and 0.0000256 mM in turn. The compound solutions at the above concentrations were diluted 5000 times with the complete culture medium. The final 2× concentrations were in order 2000, 400, 80, 16, 3.2, 0.64, 0.128, 0.0256, and 0.00512 nM. The vehicle control was 0.02% DMSO culture fluid. • 2) A complete culture medium containing 100 μL of the compound solution was added to each well, and the final concentrations of the compounds in the wells were in order 1000, 200, 40, 8, 1.6, 0.32, 0.064, 0.0128, and 0.00256 nM. The 0.01% DMSO culture fluid was contained in the vehicle control well. After incubated with compound for 1 h, the cells were irradiated at a dose of 1 Gy. • 3) After irradiation, the plate was put into an incubator and incubated under the condition of 37° C. and 5% CO2 for 6 days. Then detection was performed by adopting CTG assay (100 μL of liquid from each well was sucked out and discarded, and 50 μL of CTG reagent was added to each well, and incubated at room temperature for 30 min, and the luminescence intensity was detected). • (3) Data analysis • 1) The Luminescence signal (RLU) of each well was detected. • 2) Proliferation inhibitory activity was calculated according to the formula: % inhibitory activity=RLUtreatment/RLUAvg(Vehicle)*100. 5.3 the Inhibitory Activities of Compounds of the Present Disclosure Combined with Radiotherapy on LN18 Cell Proliferation
Structure (SMILES),D 17 TGI [1] [%],D 17 TV (MEAN ± SD) [1],D 17 TGI [2] [%],D 17 TV (MEAN ± SD) [2],Tumor weight [2] [g],Tumor weight inhibitory rate [2] [%],IC50 [3] [nM],"inhibitory effect on tumor volume and tumor weight, in words ([2]; combined with irinotecan liposome injection, compared with AZD1390)"
"CC(C)n1c(=O)n(C)c2cnc3cc(F)c(-c4ccc(OCCCN5CCCCC5)nc4)cc3c21 [AZD1390, reference compound]",82.8,294 ± 52***^# mm^3,60.3,342.8 ± 110.6*** mm^3,0.32 ± 0.09,45.3,2.79,–
"Cn1c(=O)n2c3c4c(c(-c5ccc(OCCCN6CCCCC6)nc5)c(F)cc4ncc31)NCC2(C)C [Example A-193, 6-fluoro-2,10,10-trimethyl-7-(6-(3-(piperidin-1-yl)propoxy)pyridin-3-yl)-2,8,9,10-tetrahydro-1H-2,4,8,10a-tetraazanaphtho[2,1,8-cde]azulen-1(2H)-one]",81.1,310 ± 61***^# mm^3,87.5,225.9 ± 69.4***^### mm^3,0.24 ± 0.06,60.2,10.1,higher than those of AZD1390
